Literature values as cited in patent US20030216635A1, “Method and system for monitoring pancreatic pathologies” (priority 2000, published 2003).

Details: value substituted into equation 1.3; set up at 4.7 Tesla

O=C([O-])CN(CCN(CC(=O)[O-])CC(=O)O)CCN(CC(=O)[O-])CC(=O)O.[Gd+3] [GdDTPA, gadolinium-diethylenetriamine-pentaacetic-acid]
Relaxivity constant R: 4.3 mM^−1 sec ^−1
